Here are results for twelve compounds from paper PMC10051485 (Pharmaceuticals, 2023).

Data set [1] concerns SK-N-SH neuroblastoma cells. As to the kind of experiment: Cytotoxicity on SK-N-SH neuroblastoma cells (MTT assay). The conditions noted are these: MTT, 24 h; for Highest concentration that showed nontoxicity on SK-N-SH cells: tested 0–1000 µM; for % Viability ± RSD at the highest nontoxic concentration: at the concentration of Table 2. The procedure: (§1) SK-N-SH cells were pretreated for 3 h with the respective half-maximal inhibitory doses of the tested compounds (except 9 and 10) before incubating with 25 μM Aβ42 for 24 h to determine the neuroprotective effect against Aβ42-induced toxicity. The relative cell viability (compared with the control) was then assessed.
(§2) Quantitative measurement of cell viability was performed by MTT assay. Briefly, SK-N-SH cells were seeded at a density of 5 × 10^4 cells/100 µL into each well of 96-well plate and incubated at 37 °C in 5% CO2 for 24 h. After incubation, the tested compounds were added at different concentrations, from 0 to 1000 µM. After incubation for 24 h, 50 µL of 3-(4,5-dimethylthiazol-2-yl)-2,5-diphenyltetrazolium bromide (MTT) stock solution (1 mg/mL) was added to each well and incubated at 37 °C for 3 h. Absorbance (A) of each well was measured using a plate reader at a wavelength of 590 nm. Three independent experiments were performed, and results were expressed as mean ± SD. […] Each concentration was prepared in triplicate. […] After incubation for 24 h, 50 µL of MTT stock solution (1 mg/mL) was added to each well and incubated at 37 °C for 3 h. The absorbance (A) of each well was measured using a plate reader at a wavelength of 590 nm. Three independent experiments were performed, and results were expressed as mean ± SD.
(§3) The percent of cell viability was calculated as follow: (A590nm of treated cells/A590nm of untreated cells) × 100.
Background: Formazan colour is commonly taken as a measure of viable cells.

Data set [2] can be described thus: in vitro. Particulars: human. The procedure:
as §1, §2, §3

Data set [3] concerns the target T1, Acetylcholinesterase (AChE) (Electrophorus electricus, UniProt O42275).
T1 construct: purchased Sigma type VI-S
As to the kind of experiment: Antiacetylcholinesterase activity (Ellman assay). The data set is classed as biochemical, Electrophorus electricus (electric eel). The conditions noted are these: for inhibition at 100 µM: read-out: % Inhibition ± RSD of acetylcholinesterase; for % Inhibition ± RSD of acetylcholinesterase: at 100 µM. On the procedure: All the chemicals were purchased from commercial suppliers and were used without any purification. Acetylcholinesterase from Electrophorus electricus (electric eel) type VI-S was produced from Sigma. […] SK-N-SH human neuroblastoma cell line was obtained from the American Type Culture Collection (ATCC HTB-11). The melting point of all compounds was determined on an Electrothermal model 9100 capillary melting point apparatus. Infrared (IR) spectra were run on Fourier Transform Infrared Spectroscopy (FT-IR) (Nicolet 6700, Thermo Scientific, Waltham, MA, USA) using the direct compression technique and record in cm^−1. Proton and carbon nuclear magnetic resonance (^1H NMR, ^13C NMR) spectra were obtained on an Advance 300 MHz NMR Spectroscopy (DPX-3000, Bruker, Switzerland) at 300 MHz and 75.45 MHz, respectively. Chemical shifts (δ) were reported in parts per million (ppm). The NMR solvents used were deuterated dimethylsulfoxide (DMSO-d6, δ = 2.49 ppm) and deuterated chloroform (CDCl3, δ = 7.25 ppm). Mass spectra were determined on a LCQ Fleet Ion Trap Mass Spectrometry using the ESI method. Silica gel 60 (Merck, Art 7734) was used for column chromatography as an adsorbent. The ratio of sample and the adsorbent was about 1:40–60 by weight. The mobile phases developed for thin-layer chromatography (TLC) were generally applied for a column. TLC investigations routinely used for chromatographic separations were carried out on silica gel F254 coated aluminum sheets 20 × 20 cm (Merck, 0.2 mm thickness). The components were detected by visualization under ultraviolet (UV) light at λ of 254 and 365 nm. All solvents were reagent grade and, when necessary, were purified and dried by standard methods. Starting materials and reagents were obtained from commercial suppliers.
Acetylcholinesterase (AChE) inhibitory activity was assayed by modified Ellman’s method using 96-well microplates. […] The absorbance of the mixture in each well was measured at 405 nm by using a microplate reader. After adding 25 µL of 0.22 U/mL AChE in Buffer II into each well, the measurement of absorbance was carried out again at 405 nm and repeated every 45 s for 10 min cycles by a microplate reader (Infinite M200, Tecan, Switzerland). […] The assay was performed in triplicate. […] The percent of enzyme inhibition was calculated as follows: {[(A-B) − (C − D)]/(A − B)} × 100, where A and C were the absorbances of the control treatment and test compounds; and B and D were blank of control and test compounds.

The nature of data set [4]: Antioxidant activity (DPPH assay). The conditions noted are these: for IC50: DPPH 0.4 mM, 30 min in darkness, read-out: IC50 (µM) ± RSD, antioxidative activity. The procedure: Increased generation of free radicals also results in cytotoxicity from Aβ42. This effect might be associated with the Aβ1–42 mediated neurotoxicity. Therefore, it was intriguing to research the roles of the synthesized compounds in assisting oxidative stress, thus preventing cell death. By employing vitamin C as a positive control, the antioxidative properties of synthesized compounds were assessed using the DPPH assay. The activities were presented as the IC50 in Table 4.
Antioxidant activity of tested compounds was determined by the reaction of stable DPPH radical with some modification. Briefly, various concentrations of test compounds were added in 96-well plates and then the methanolic DPPH solution (0.4 mM, 0.1 mL) into each well. The reaction mixture was placed for 30 min in darkness. The degree of purple DPPH decolorization to yellow DPPH indicated the scavenging capacity of the test compounds. The absorbance of the mixture was determined at 517 nm using a microplate reader and L-ascorbic acid served as a positive control. The percent of antioxidant activity was calculated as follow: [1 − (Asample − Ablank)/Acontrol] × 100.
Background: Loss of DPPH colour is used to gauge radical scavenging.

In data set [5] the target is T2, Aβ1–42 (Homo sapiens, UniProt P05067).
T2 construct: Amyloid beta (Aβ1–42) was purchased from the American Peptide Company; purchased American Peptide Company (Sunnyvale, CA, USA)
T2 sequence (P05067 672-713): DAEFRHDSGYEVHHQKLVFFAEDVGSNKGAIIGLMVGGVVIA
The data set can be described thus: Anti-Aβ aggregation activity (Thioflavin T fluorescence assay). The conditions noted are these: for IC50: ThT assay, Aβ1–42, 24 h, room temperature, pH 7.4, read-out: IC50 (µM) ± RSD, antiaggregation action on Aβ42. The class given is biochemical. The procedure:
Each compound was diluted in 50 mM Tris-HCl (pH 7.4) to achieve a concentration between 10 nM and 100 µM using 5 concentration points. A total of 1 µL of each sample solution was added to 96-well plates. […] The plate was incubated in the dark at room temperature for 24 h with no agitation. After an incubation period, 200 µL of 5 µM ThT in 50 mM Tris-HCl (pH 7.4) was added to each well. Fluorescence was measured on a SpectraMax GEMINI EM (Molecular Devices, Sunnyvale, CA, USA) dual scanning microplate spectrofluorometer with excitation and emission wavelengths at 446 nm and 500 nm, respectively. The percent of antiaggregation was calculated as follows: [1 − (Fsample − Fblank)/Fcontrol] × 100.

In data set [6] the test system is SK-N-SH neuroblastoma cells. The data set can be described thus: Protection of SK-N-SH neuroblastoma against Aβ42-induced cell death (MTT assay). The conditions noted are these: for viability at 31.25 µM: Homo sapiens, SK-N-SH, read-out: % Viability ± RSD, neuroprotective effect against Aβ induced damage; for % Viability ± RSD, neuroprotective effect against Aβ induced damage: pretreated 3 h at IC50 of antiaggregation (compounds 9 and 10 at 31.25 µM), then 25 µM Aβ42 for 24 h. The procedure:
The effects of Aβ42 on the viability of SK-N-SH neuroblastoma cells were investigated using an MTT reduction test. MTT is a tetrazolium salt that can be reduced to formazan by mitochondria dehydrogenase; the reaction is active only in living cells.
The relative cell viability (compared with the control) was then assessed.
as §2, §3

T1 sequence (O42275 24-633): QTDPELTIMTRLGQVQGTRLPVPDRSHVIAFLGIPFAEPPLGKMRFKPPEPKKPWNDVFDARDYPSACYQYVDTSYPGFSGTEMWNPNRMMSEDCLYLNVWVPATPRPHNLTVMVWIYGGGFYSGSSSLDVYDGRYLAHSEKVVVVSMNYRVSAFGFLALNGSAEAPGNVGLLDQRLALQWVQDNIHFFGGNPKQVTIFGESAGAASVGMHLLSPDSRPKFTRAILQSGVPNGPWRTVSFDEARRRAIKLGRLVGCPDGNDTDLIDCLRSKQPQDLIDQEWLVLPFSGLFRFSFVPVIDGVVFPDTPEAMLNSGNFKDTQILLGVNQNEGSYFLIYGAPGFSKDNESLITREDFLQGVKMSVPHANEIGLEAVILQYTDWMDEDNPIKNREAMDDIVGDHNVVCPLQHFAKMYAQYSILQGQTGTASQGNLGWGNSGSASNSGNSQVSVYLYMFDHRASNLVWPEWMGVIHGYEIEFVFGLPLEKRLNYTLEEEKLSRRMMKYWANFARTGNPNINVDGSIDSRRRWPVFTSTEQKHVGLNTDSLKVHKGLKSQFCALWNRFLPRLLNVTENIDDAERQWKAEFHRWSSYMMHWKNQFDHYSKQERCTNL

`Cc1[nH]c2ccc(Oc3ccccc3)cc2c1CC(=O)O` [Compound 3, 2-Methyl-3-(carboxymethyl)-5-phenoxy Indole]: the “Highest concentration that showed nontoxicity on SK-N-SH cells” value in data set [1] was determined as 31.25 µM. This compound gave a viability at 24 h in data set [2] of 90.4 ± 3.69%. In data set [3], the inhibition at 100 µM turned out to be 29.3%. The half-maximal inhibitory concentration (IC50) was determined as 47.1 µM in data set [4] and 18.8 µM in data set [5].

Take `CNC(=O)Cc1c(C)[nH]c2ccc(Oc3ccccc3)cc12` [Compound 4, 2-Methyl-3-(methylethanamide-2-yl)-5-phenoxy Indole]: the “Highest concentration that showed nontoxicity on SK-N-SH cells” value in data set [1] came out at 31.25 µM. Moreover, the viability at 24 h in data set [2] came to 93.7 ± 3.23%. For the same compound, in data set [3], the inhibition at 100 µM was 9.73%. Further, the IC50 in data set [4] came to 176 µM; in data set [5] it was 3.26 µM. In data set [5] (compared to compound 7), the “Fold more potent against Aβ aggregation than methyl ester 7” value was 4.3 fold. For the same compound, in data set [6], the viability at 31.25 µM turned out to be 72.3 ± 1.85%.

As for `CCOC(=O)Cc1c(C)[nH]c2ccc(Oc3ccccc3)cc12` [Compound 6, 2-Methyl-3-(ethyl ethanoate-2-yl)-5-phenoxy Indole], in data set [1], the “Highest concentration that showed nontoxicity on SK-N-SH cells” value is recorded as 31.25. µM. This compound also gave a viability at 24 h in data set [2] of 89.5 ± 2.11%. Also, the inhibition at 100 µM in data set [3] was 19.9%. Also, the IC50 in data set [4] came to 190 µM; in data set [5], 19.1 µM.

With `COC(=O)Cc1c(C)[nH]c2ccc(Oc3ccccc3)cc12` [Compound 7, 2-Methyl-3-(methyl ethanoate-2-yl)-5-phenoxy Indole], in data set [1], the “Highest concentration that showed nontoxicity on SK-N-SH cells” value was 31.25 µM. In data set [2], the viability at 24 h was 93.4 ± 2.15%. The inhibition at 100 µM in data set [3] amounted to 11%. Further, the IC50 in data set [4] came to 145 µM; in data set [5], 14 µM. Further, the viability at 31.25 µM in data set [6] was 83.7 ± 2.21%.

As to `Cc1[nH]c2ccc(Oc3ccccc3)cc2c1CC(=O)NC#N` [Compound 8, 2-Methyl-3-(cyanoethanamide-2-yl)-5-phenoxy Indole], the “Highest concentration that showed nontoxicity on SK-N-SH cells” value in data set [1] came out at 62.50 µM. The viability at 24 h in data set [2] was 93.8 ± 3.66%. Also, in data set [3], the inhibition at 100 µM was determined as 6.61%. Also, the figures for the IC50 in data set [4] and in data set [5] were 85.5 µM and 20.6 µM, respectively. Further, the “Fold less potent antioxidant than compound 5” value in data set [4] (compared to compound 5) worked out at 3.03 fold.

For the compound `Cc1ccc(CNC(=O)Cc2c(C)[nH]c3ccc(Oc4ccccc4)cc23)cc1` [Compound 9, 2-Methyl-3-(4-methylbenzylethanamide-2-yl)-5-phenoxy Indole], in data set [1], the “% Viability ± RSD at the highest nontoxic concentration” value was determined as 95.21 ± 3.00% and the “Highest concentration that showed nontoxicity on SK-N-SH cells” value is on record as 31.25 µM. In addition, the “% Inhibition ± RSD of acetylcholinesterase” value (from here on “% Inhibition ± RSD”) in data set [3] came out at 12.5 ± 4.57%. Moreover, the IC50 in data set [4] was 265 µM. Further, in data set [5], the IC50 came out at 53.7 µM. The “% Viability ± RSD, neuroprotective effect against Aβ induced damage” value (shortened to “% Viability ± RSD … against Aβ induced damage”) in data set [6] amounted to 80.38 ± 3.54%.

Take `Cc1[nH]c2ccc(Oc3ccccc3)cc2c1CC(=O)NCc1ccc(F)cc1` [Compound 10, 2-Methyl-3-(4-fluorobenzylethanamide-2-yl)-5-phenoxy Indole]: in data set [1], the “% Viability ± RSD at the highest nontoxic concentration” value is on record as 80.51 ± 3.96% and the “Highest concentration that showed nontoxicity on SK-N-SH cells” value is listed as 31.25 µM. The “% Inhibition ± RSD” value in data set [3] stood at 12.45 ± 4.98%. The IC50 in data set [4] stood at 86 µM. In addition, in data set [4] (p-CH3 (compound 9) converted to p-F (compound 10)), the “Fold increase of antioxidant potency versus compound 9” value amounted to 3.08 fold. Moreover, the IC50 in data set [5] is 72.7 µM. Besides, in data set [5] (p-CH3 (compound 9) replaced with p-F (compound 10)), the “Fold reduction of anti-Aβ aggregation versus compound 9” value is on record as 1.4 fold. In addition, the “% Viability ± RSD … against Aβ induced damage” value in data set [6] stood at 63.05 ± 2.70%.

With `Cc1[nH]c2ccc(Oc3ccccc3)cc2c1CC(=O)Nc1ccccc1` [Compound 11, 2-Methyl-3-(phenylethanamide-2-yl)-5-phenoxy Indole], in data set [1], the “Highest concentration that showed nontoxicity on SK-N-SH cells” value turned out to be 15.63 µM. The compound also showed a viability at 24 h in data set [2] of 94.3 ± 3.31%. Moreover, the inhibition at 100 µM in data set [3] turned out to be 30%. The IC50 in data set [4] was found to be 111 µM; in data set [5], 13.1 µM.

Consider `Cc1ccc(S(=O)(=O)NC(=O)Cc2c(C)[nH]c3ccc(Oc4ccccc4)cc23)cc1` [Compound 12, 2-Methyl-3-(4-methylbenzesulfonylethanamide-2-yl)-5-phenoxy Indole], for which, in data set [1], the “% Viability ± RSD at the highest nontoxic concentration” value is listed as 90.73 ± 4.64% and the “Highest concentration that showed nontoxicity on SK-N-SH cells” value was 15.63 µM. In addition, the “% Inhibition ± RSD” value in data set [3] came to 31.52 ± 4.90%. Also, in data set [4], the IC50 came out at 121 µM. In addition, in data set [5], the IC50 is 9.48 µM. Also, in data set [6], the “% Viability ± RSD … against Aβ induced damage” value was 71.85 ± 1.82%.

Consider `COc1cc(/C=C/C(=O)CC(=O)/C=C/c2ccc(O)c(OC)c2)ccc1O` [Curcumin, reference compound], for which the “Highest concentration that showed nontoxicity on SK-N-SH cells” value in data set [1] was determined as 15.63 µM. For the same compound, the viability at 24 h in data set [2] worked out at 94.4 ± 1.83%.

As to `C[S+](C)[O-]` [DMSO], the “% Viability ± RSD at the highest nontoxic concentration” value in data set [1] is listed as 92.08 ± 2.86%.

Consider `O=C1O[C@H]([C@@H](O)CO)C(O)=C1O` [Vitamin C, L-ascorbic acid, reference compound], for which, in data set [4], the IC50 is 13.3 µM.

The term viability denotes the share of living cells, or the viability signal relative to a control. By inhibition is commonly meant the share of the control response that was lost under treatment. The IC50 is the concentration that inhibits the measured activity by half.
